The results in this text go back to ChEMBL document CHEMBL1132004, “Antagonism of the TXA2 receptor by seratrodast: a structural approach” (Bioorg Med Chem Lett, 1999).

A short description of this data set: The pKa of the sulfonamido group of the compound. The class given is physicochemical.

In turn, `Cc1cccc(Nc2ccncc2S(=O)(=O)/N=C(\NC#N)N2CCCCCC2)c1` displayed a pKa of 6.

Usually pKa stands for the pH at which an ionisable group is half protonated.
